Measurements reported in PMC11845761, “Intestinal human carboxylesterase 2 (CES2) expression rescues drug metabolism and most metabolic syndrome phenotypes in global Ces2 cluster knockout mice” (Acta Pharmacologica Sinica, 2024).
Like-named read-outs stand apart in the source and are kept apart here. Marks after values point to notes of the source that are not given here.

What was measured:
[1] = Plasma pharmacokinetics of capecitabine and its metabolites after oral capecitabine in CES2-modified mice; format: in vivo, mouse; settings: oral capecitabine 500 mg/kg; for AUC(0-t) / Cmax / Tmax: female, mouse, po, 500 mg/kg; for AUC(0-t) / Cmax / Tmax / AUC0-2h ratio (×10^−3) (5-FU/capecitabine): plasma; for AUC(0-t): read-out: AUC0-2h; for Tmax: read-out: Tmax
Description: (§1) For capecitabine 2-h experiments, 6–7 female mice received oral capecitabine (500 mg/kg, 10 μL/g), and tail vein blood samples were collected at 0.125, 0.25, 0.5 and 1 h after drug administration. For the vinorelbine 4-h experiment, 6-7 male mice received vinorelbine intravenously (10 mg/kg, 5 μL/g) or orally (10 mg/kg, 10 μL/g) using a blunt-ended needle. Tail vein blood samples were collected at 0.125, 0.25, 0.5, 1 and 2 h after drug administration. […] At the last time point in each experiment (2 or 4 h), mice were anesthetized with 5% isoflurane and blood was collected by cardiac puncture. […] Plasma was isolated from the blood by centrifugation at 9000 × g for 6 min at 4 °C, and the plasma fraction was collected and stored at −30 °C until analysis.
(§2) Concentrations of capecitabine (and its metabolites) and vinorelbine (and its metabolite) in mouse plasma samples and organ homogenates were determined using two independent validated high-performance liquid chromatography-tandem mass spectrometry assays.
(§3) Pharmacokinetic parameters were calculated by non-compartmental methods using the PK solver software. […] Differences were considered statistically significant when P < 0.05. All data are presented as mean ± SD.

[2] = Tissue concentrations of capecitabine and its metabolites 2 h after oral capecitabine in CES2-modified mice; format: in vivo, mouse; settings: oral capecitabine 500 mg/kg; for concentration at 2 h: female, mouse, oral, 500 mg/kg
Description: as §1, §2, §3

[3] = Ces2^–/– (Ces2 cluster knockout), female Ces2^–/– mice
[4] = Ces2^–/– (Ces2 cluster knockout), female Ces2^–/– mice, read-out: Cmax
[5] = female Ces2^–/–A mice, read-out: Cmax
[6] = female Ces2^–/–V mice, read-out: Cmax
[7] = female wild-type mice, read-out: Cmax
[8] = Ces2^-/-, liver, female Ces2^–/– mice, read-out: Cliver (liver concentration)
[9] = Ces2^-/-, small intestine, female Ces2^–/– mice, read-out: CSI (small intestine tissue concentration)
[10] = Ces2^-/-A, liver, female Ces2^–/–A mice, read-out: Cliver (liver concentration)
[11] = Ces2^-/-A, small intestine tissue, female Ces2^–/–A mice, read-out: CSI (small intestine tissue concentration)
[12] = Ces2^-/-V, liver, female Ces2^–/–V mice, read-out: Cliver (liver concentration)
[13] = Ces2^-/-V, small intestine, female Ces2^–/–V mice, read-out: CSI (small intestine tissue concentration)
[14] = colon, female Ces2^–/– mice, read-out: Ccolon (colon concentration)
[15] = colon, female Ces2^–/–A mice, read-out: Ccolon (colon concentration)
[16] = colon, female Ces2^–/–V mice, read-out: Ccolon (colon concentration)
[17] = colon, female wild-type mice, read-out: Ccolon (colon concentration)
[18] = liver, female wild-type mice, read-out: Cliver (liver concentration)
[19] = small intestine contents, female Ces2^–/– mice, read-out: CSIC (small intestine contents concentration)
[20] = small intestine contents, female Ces2^–/–A mice, read-out: CSIC (small intestine contents concentration)
[21] = small intestine contents, female Ces2^–/–V mice, read-out: CSIC (small intestine contents concentration)
[22] = small intestine contents, female wild-type mice, read-out: CSIC (small intestine contents concentration)
[23] = small intestine tissue, female wild-type mice, read-out: CSI (small intestine tissue concentration)

## CCCCCOC(=O)Nc1nc(=O)n([C@@H]2O[C@H](C)[C@@H](O)[C@H]2O)cc1F [Capecitabine, reference compound]
[1]; female mice
  plasma AUC0-2h, fold greater in Ces2^–/– than in wild-type mice: 5.3 fold
  plasma AUC0-2h, lower in Ces2^–/–V than in Ces2^–/– mice: 44%
[1]; [3]
  AUC(0-t): 31300 ± 16600 ng·h/mL
  Tmax: 12.6 ± 3.6 min
[1]; [4]
  Cmax: 42600 ± 17800 ng/mL
[1]; female Ces2^–/–A mice
  AUC(0-t): 31500 ± 19200 ng·h/mL
  Tmax: 10.2 ± 4.2 min
[1]; [5]
  Cmax: 47000 ± 34100 ng/mL
[1]; female Ces2^–/–V mice
  AUC(0-t): 17500 ± 9710 ng·h/mL
  Tmax: 9.6 ± 3.6 min
[1]; [6]
  Cmax: 23400 ± 14100 ng/mL
[1]; female wild-type mice
  AUC(0-t): 5850 ± 1380 ng·h/mL
  Tmax: 11.4 ± 4.2 min
[1]; [7]
  Cmax: 12200 ± 3800 ng/mL
[2]; female mice
  liver concentration, fold greater in Ces2^–/– than in wild-type mice: 13.8 fold
  liver concentration, reduction in Ces2^–/–A compared with Ces2^–/– mice: 74.2%
  liver concentration, reduction in Ces2^–/–V compared with Ces2^–/– mice: 63.5%
  small intestine concentration, fold higher in Ces2^-/- than in wild-type mice: 10.6 fold
[2]; [8]
  concentration at 2 h: 18000 ± 8740 ng/g
[2]; [9]
  concentration at 2 h: 17200 ± 6550 ng/g
[2]; [10]
  concentration at 2 h: 4650 ± 1760 ng/g
[2]; [11]
  concentration at 2 h: 15200 ± 6020 ng/g
[2]; [12]
  concentration at 2 h: 6570 ± 3220 ng/g
[2]; [13]
  concentration at 2 h: 2410 ± 1190 ng/g
[2]; Ces2^–/– (Ces2 cluster knockout), small intestine, female Ces2^–/– mice, read-out: CSI (small intestine tissue concentration)
  concentration at 2 h: 17200 ng/g
[2]; [14]
  concentration at 2 h: 14300 ± 9020 ng/g
[2]; [15]
  concentration at 2 h: 8780 ± 1630 ng/g
[2]; [16]
  concentration at 2 h: 4970 ± 2980 ng/g
[2]; [17]
  concentration at 2 h: 2250 ± 712 ng/g
[2]; [18]
  concentration at 2 h: 1300 ± 522 ng/g
[2]; [19]
  concentration at 2 h: 97200 ± 37200 ng/g
[2]; [20]
  concentration at 2 h: 88500 ± 25100 ng/g
[2]; [21]
  concentration at 2 h: 49700 ± 45900 ng/g
[2]; [22]
  concentration at 2 h: 26500 ± 16300 ng/g
[2]; [23]
  concentration at 2 h: 1630 ± 865 ng/g
[2]; small intestine, female Ces2^–/–V mice, read-out: CSI (small intestine tissue concentration)
  concentration at 2 h: 2410 ± 1190 ng/g

## O=c1[nH]cc(F)c(=O)[nH]1 [5-FU, 5-fluorouracil, reference compound]
[1]; female Ces2^–/– mice
  AUC0-2h ratio (×10^−3) (5-FU/capecitabine): 6.4 ± 2.1 ×10^−3
[1]; female Ces2^–/–A mice
  AUC0-2h ratio (×10^−3) (5-FU/capecitabine): 8.0 ± 2.7 ×10^−3
  AUC(0-t): 218 ± 79 ng·h/mL
  Tmax: 55.2 ± 12 min
[1]; female Ces2^–/–V mice
  AUC0-2h ratio (×10^−3) (5-FU/capecitabine): 13 ± 1.6***^###^ ×10^−3
  AUC(0-t): 215 ± 100 ng·h/mL
  Tmax: 51.6 ± 14.4 min
[1]; female wild-type mice
  AUC0-2h ratio (×10^−3) (5-FU/capecitabine): 29 ± 8.1 ×10^−3
  AUC(0-t): 168 ± 41 ng·h/mL
  Tmax: 30 ± 16.2 min
[1]; [3]
  AUC(0-t): 187 ± 98 ng·h/mL
  Tmax: 55.8 ± 11.4 min
[1]; [4]
  Cmax: 147 ± 96 ng/mL
[1]; [5]
  Cmax: 159 ± 56 ng/mL
[1]; [6]
  Cmax: 156 ± 81 ng/mL
[1]; [7]
  Cmax: 105 ± 36 ng/mL
[1]; female wild-type, Ces2^–/–, Ces2^–/–A and Ces2^–/–V mice, read-out: mean Cmax, range over the mouse models
  Cmax: 105 to 159 ng/mL
[2]; female Ces2^–/– mice
  Colon concentration ratio (metabolite/capecitabine): 0.14 ± 0.03
  Liver concentration ratio (metabolite/capecitabine): 0.09 ± 0.03
  Small intestine concentration ratio (metabolite/capecitabine): 0.32 ± 0.10
  Small intestine contents Ratio (x 10^-3) (5-FU/Capecitabine): 2.1 ± 0.7 x 10^-3
[2]; female Ces2^–/–A mice
  Colon concentration ratio (metabolite/capecitabine): 0.17 ± 0.02
  Liver concentration ratio (metabolite/capecitabine): 0.52 ± 0.25
  Small intestine concentration ratio (metabolite/capecitabine): 0.32 ± 0.11
  Small intestine contents Ratio (x 10^-3) (5-FU/Capecitabine): 1.9 ± 1.6 x 10^-3
[2]; female Ces2^–/–V mice
  Colon concentration ratio (metabolite/capecitabine): 0.50 ± 0.18^###^^^
  Liver concentration ratio (metabolite/capecitabine): 0.24 ± 0.07***^###^
  Small intestine concentration ratio (metabolite/capecitabine): 2.0 ± 0.9^###^^^
  Small intestine contents Ratio (x 10^-3) (5-FU/Capecitabine): 6.8 ± 3.0##^^ x 10^-3
[2]; female wild-type mice
  Colon concentration ratio (metabolite/capecitabine): 0.53 ± 0.09
  Liver concentration ratio (metabolite/capecitabine): 0.65 ± 0.31
  Small intestine concentration ratio (metabolite/capecitabine): 2.1 ± 0.8
  Small intestine contents Ratio (x 10^-3) (5-FU/Capecitabine): 5.1 ± 3.4 x 10^-3
[2]; [8]
  concentration at 2 h: 1520 ± 765 ng/g
[2]; [9]
  concentration at 2 h: 5200 ± 2040 ng/g
[2]; [10]
  concentration at 2 h: 2140 ± 372 ng/g
[2]; [11]
  concentration at 2 h: 4430 ± 1510 ng/g
[2]; [12]
  concentration at 2 h: 1420 ± 574 ng/g
[2]; [13]
  concentration at 2 h: 4120 ± 1840 ng/g
[2]; [14]
  concentration at 2 h: 1830 ± 1010 ng/g
[2]; [15]
  concentration at 2 h: 1460 ± 233 ng/g
[2]; [16]
  concentration at 2 h: 2100 ± 1020 ng/g
[2]; [17]
  concentration at 2 h: 1190 ± 486 ng/g
[2]; [18]
  concentration at 2 h: 747 ± 184 ng/g
[2]; [19]
  concentration at 2 h: 200 ± 109 ng/g
[2]; [20]
  concentration at 2 h: 142 ± 64 ng/g
[2]; [21]
  concentration at 2 h: 263 ± 149 ng/g
[2]; [22]
  concentration at 2 h: 125 ± 90 ng/g
[2]; [23]
  concentration at 2 h: 3020 ± 835 ng/g
